Measured values published in ChEMBL document CHEMBL5143740, “Discovery of Novel Phosphoinositide-3-Kinase α Inhibitors with High Selectivity, Excellent Bioavailability, and Long-Acting Efficacy for Gastric Cancer” (J Med Chem, 2022).
Calls of active or inactive are those of the source. The rule behind the calls is not given here.

Columns and labels:
[1] = target: T1, Phosphatidylinositol 4,5-bisphosphate 3-kinase catalytic subunit delta isoform (Homo sapiens, UniProt O00329); experiment: Inhibition of PI3Kdelta (unknown origin) in presence of [33P]-ATP incubated for 2 hrs by hotspot kinase assay
T1 sequence (O00329 whole entry): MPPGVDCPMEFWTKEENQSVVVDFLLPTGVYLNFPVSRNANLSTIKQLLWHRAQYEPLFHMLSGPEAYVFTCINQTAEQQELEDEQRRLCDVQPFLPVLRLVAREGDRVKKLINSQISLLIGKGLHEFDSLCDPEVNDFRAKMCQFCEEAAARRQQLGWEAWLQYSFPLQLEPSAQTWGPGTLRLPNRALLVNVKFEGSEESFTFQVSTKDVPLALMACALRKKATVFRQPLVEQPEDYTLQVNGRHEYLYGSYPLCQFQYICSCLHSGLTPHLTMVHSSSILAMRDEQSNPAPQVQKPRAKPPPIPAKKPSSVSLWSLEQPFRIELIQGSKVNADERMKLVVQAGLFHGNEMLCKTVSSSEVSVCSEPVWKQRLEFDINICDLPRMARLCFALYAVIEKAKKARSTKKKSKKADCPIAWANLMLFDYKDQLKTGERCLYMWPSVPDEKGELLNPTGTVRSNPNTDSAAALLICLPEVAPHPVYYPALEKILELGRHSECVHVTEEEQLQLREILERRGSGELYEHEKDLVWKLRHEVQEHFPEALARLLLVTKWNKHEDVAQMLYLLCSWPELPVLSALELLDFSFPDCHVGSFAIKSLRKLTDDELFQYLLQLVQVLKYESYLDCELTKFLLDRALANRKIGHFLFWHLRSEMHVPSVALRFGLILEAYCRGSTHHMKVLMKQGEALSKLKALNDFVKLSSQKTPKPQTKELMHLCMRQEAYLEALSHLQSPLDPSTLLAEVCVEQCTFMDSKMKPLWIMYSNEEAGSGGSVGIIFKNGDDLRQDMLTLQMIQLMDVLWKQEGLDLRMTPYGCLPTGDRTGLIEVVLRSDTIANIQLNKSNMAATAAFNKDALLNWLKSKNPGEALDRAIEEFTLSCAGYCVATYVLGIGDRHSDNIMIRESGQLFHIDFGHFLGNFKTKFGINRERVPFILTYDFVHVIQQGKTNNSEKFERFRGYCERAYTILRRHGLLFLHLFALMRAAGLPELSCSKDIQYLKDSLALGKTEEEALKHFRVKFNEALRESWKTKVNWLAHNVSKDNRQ

[2] = Clearance in Sprague-Dawley rat at 1 mg/kg, iv measured after 24 hrs; assay type: ADME, organism-based; settings: in vivo
RPMI-8226 = experiment: Antiproliferative activity against human RPMI-8226 cells assessed as inhibition of cell growth incubated for 72 hrs by CCK8 assay; assay type: functional, cell-based; settings: RPMI-8226, 72 h
MGC-803 [3] = experiment: Inhibition of PI3K signalling pathway in human MGC-803 cells assessed as reduction in pAKT level at 2 to 8 uM by Western blotting analysis; assay type: cell-based; settings: dose 2-8 µM
[4] = AUC (0 to infinitive) in Sprague-Dawley rat at 10 mg/kg, po measured after 24 hrs; assay type: ADME, organism-based; set-up: dose 10 mg/kg, time 24 hrs, route po; settings: in vivo
MGC-803 [5] = experiment: Induction of apoptosis in human MGC-803 cells assessed as early apoptotic cells at 8 uM incubated for 36 hrs by annexin V-FITC based flow cytometry analysis (reference value: 2.49 %); assay type: functional
[6] = Half life in Sprague-Dawley rat at 10 mg/kg, po measured after 24 hrs; assay type: ADME, organism-based; settings: in vivo
MGC-803 [7] = experiment: Induction of apoptosis in human MGC-803 cells assessed as late apoptotic cells at 8 uM incubated for 36 hrs by annexin V-FITC based flow cytometry analysis (reference value: 2.61 %); assay type: functional
Homo sapiens = organism: Homo sapiens; experiment: Selectivity index, ratio of IC50 for inhibition of PI3Kbeta (unknown origin) to IC50 for inhibition of PI3Kalpha (unknown origin)
MGC-803 [8] = experiment: Antitumor activity against human MGC-803 cells xenografted in BALB/c nude mouse assessed as reduction in tumor volume at 30 mg/kg, po administered every day for 3 weeks by vernier caliper method; assay type: functional, organism-based
[9] = Cmax in Sprague-Dawley rat at 10 mg/kg, po measured after 24 hrs; assay type: ADME, organism-based; set-up: time 24 hrs, dose 10 mg/kg, route po; settings: in vivo
MGC-803 [10] = experiment: Inhibition of PI3K signalling pathway in human MGC-803 cells assessed as reduction in P70S6K phosphorylation at 2 to 8 uM by Western blotting analysis; assay type: cell-based; settings: dose 2-8 µM
MGC-803 [11] = experiment: Induction of apoptosis in human MGC-803 cells assessed as viable cells at 8 uM incubated for 36 hrs by annexin V-FITC based flow cytometry analysis (reference value: 94.51 %); assay type: functional; settings: read-out: Activity
[12] = Tmax in Sprague-Dawley rat at 1 mg/kg, iv measured after 24 hrs; assay type: ADME, organism-based; settings: in vivo

## Nc1nc2cc(-c3nc(N4CCOCC4)nc(N4CCOCC4)n3)ccc2o1
[1]
  IC50: 153 nM
[2]
  clearance: 5.72 mL/min/kg
RPMI-8226
  IC50: 430 nM
MGC-803 [3]
  inhibition: Active
[4]
  AUC(0-inf): 38100 ng·h/mL
MGC-803 [5]
  Activity: 57.88%
[6]
  half-life: > 10 h
MGC-803 [7]
  Activity: 3.81%
Homo sapiens
  Ratio IC50: 33
MGC-803 [8]
  Activity: Active
[9]
  Cmax: 2260 ng/mL
MGC-803 [10]
  inhibition: Active
MGC-803 [11]
  viability at 8 µM: 37.2%
[12]
  Tmax: 10.8 s
